Molecular target: T1, Prostaglandin E synthase (Homo sapiens, UniProt O14684)
T1 sequence (O14684 whole entry): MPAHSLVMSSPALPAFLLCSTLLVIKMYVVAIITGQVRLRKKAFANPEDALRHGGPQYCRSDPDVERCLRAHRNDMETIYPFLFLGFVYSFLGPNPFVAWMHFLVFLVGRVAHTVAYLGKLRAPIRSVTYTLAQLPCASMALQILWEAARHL
Assay: Inhibition Assay: mPGES-1 microsome fractions were prepared from CHO-K1 cells transiently transfected with plasmid encoding the human mPGES-1cDNA. Microsomes were diluted with potassium phosphate buffer containing reduced glutathione (pH7.4), and DMSO containing test compound or DMSO alone was added (such that DMSO final concentration would be 1% in each) and incubated at 4° C. for 20 minutes. Then, the enzymatic reactions were initiated by the addition of PGH2 substrate (final concentration 1 μM) and incubated at 4° C. for 60 seconds. The reaction was terminated by the addition of a citrate solution (final citrate concentration 50 mM) containing ferric chloride (final concentration 1 mg/mL). PGE2 production in the enzyme reaction aliquot was measured using HTRF kit (Cisbio International, catalogue #62P2APEC).
Assay type: cell-based

IC50: 0.0127 µM
Compound: O=C(Nc1cc(C(=O)NCc2ccccc2C(F)(F)F)c2nc[nH]c2c1)c1ccccc1C(F)(F)F

— ChEMBL document CHEMBL3886430, “Heterocyclic derivative and pharmaceutical drug” (2015)
